Measured values as given in patent US20190365951A1, “HUMAN CARDIAC TISSUE CONSTRUCT, RELATED METHODS AND USES” (FUNDACIÓ INSTITUTE DE BIOENGINYERIA DE CATALUNYA (IBEC), priority 2018, published 2019).
One block for each molecule: values may come before it.

Experiments:
hERG ion channels = hERG ion channels (Homo sapiens, UniProt Q12809); settings: HEK293, CHO; Mathur, A. et al, 2015; cited from earlier work
CardioSlice constructs [1] = system: CardioSlice constructs
Protocol: All chemicals were dissolved in distilled water to make stock solutions, and serial dilutions were made in RPMI (Invitrogen) culture medium. To test changes in the β-adrenergic response, 1 μM isoproterenol was injected to the bioreactor circuit through the luer injection port (Inycom). For cholinergic stimulation, 10 μM carbachol was injected, and sotalol was added at 10 μM to evaluate the blockade of hERG current (Braam, S. R. et al, 2013). Spontaneous activity of cardiac constructs was recorded as baseline period. Cardiac constructs were treated with pharmacological agents during 10 min for immediate analysis, followed by 5 min washout for isoproterenol and carbachol, and 15 min for sotalol.
Electrocardiogram (ECG)-like signals were acquired through the three electrodes configuration built in the custom-made cell culture chamber and using an advanced transducer amplifier. The gold electrode acted as internal reference, and electrical activity of cardiac macrotissues was acquired using the gold and graphite electrodes. In particular, “Amplifier I” acquires activity between: “Graphite+ and Reference”; and “Amplifier II” acquires activity between: “Graphite+ and Graphite−” (FIG. 8). The obtained ECG-like signal is generated by the sum of the synchronized action potentials of all cardiomyocytes. Its shape is similar to regular surface ECG signals for humans, including the presence of the QRS complex and T wave (FIG. 4a). […] ECG-like signal recordings were monitored and stored in a computer using the AcqKnowledge software v.4.1 (BIOPAC, Santa Barbara, Calif., USA), and were analyzed with MATLAB (v. R2014b, Natick, Mass., USA). ECG-like signals were recorded at a sampling frequency of 12.5 kHz, and were filtered and decimated at a sampling rate of 500 Hz.
Recorded ECG-like signals were bandpass filtered (zero-phase fourth-order Butterworth filter with cut-off frequencies of 0.2 and 125 Hz), to use the main bandwidth of the classical electrocardiographic studies. […] Beat-to-beat fiducial points were detected and then signal averaging techniques were applied to estimate the main pattern of each ECG-like signal, enabling analysis and interpretation of QRS complex, T wave and QT interval (FIG. 4a and FIG. 5c).
During the experiments involving drug treatment, instantaneous beat rate expressed as beats per minute (bpm) was calculated over ECG-like signals, generated in both control and CardioSlice constructs at baseline and after drug application. Beat rate was assessed by measuring the RR interval, which is the time elapsing between two consecutive R waves in the electrocardiogram. Relative beat rate to baseline was calculated to evaluate the behavior of cardioactive drug effects.

CardioSlice constructs [2] = experiment: Chronotropic/contractile response by video area-oscillation analysis (custom MATLAB program); assay type: cell-based, human
Protocol: FIG. 11. Chronotropic responses of human cardiac macrotissues to the proarrhythmic drug sotalol. Changes in the beat rate were analyzed through custom MATLAB program at different incubation times (from 0 min to 40 min). The area in pixels of each construct was obtained, and its oscillation was represented over time (relative to the highest number of pixels recorded). (a) Sotalol effects on non-stimulated cardiac constructs (Control). (b) Sotalol effects on electrically stimulated cardiac constructs (CardioSlice).
Contractile function of cardiac macrotissues in spontaneous beating and in response to electric field stimulation was assessed in a set-up equivalent to one previously described (Tandon, N. et al, 2009; Tandon, N. et al, 2011). […] The space between the electrodes was filled with Tyrode's salts solution (Sigma-Aldrich Quimica), and cardiac macrotissues were imaged and video recorded using a Stereo Microscope Leica MZ10F (Leica Microsystems) with a DFC4025C Digital Microscope Camera (Leica Microsystems). […] To measure the amplitude of contraction of each cardiac macrotissue, spontaneous beating of the constructs was recorded for at least 10 s. Then, the Fractional Area Change (FAC) of 10 beats was calculated using a custom MATLAB program (v. R2014b, Natick, Mass., USA) as previously described (Tandon, N. et al., 2009). […]

[3] = system: Control constructs (non-stimulated human cardiac macrotissues); experiment: ECG-like signal recording of non-stimulated human cardiac macrotissues under drug treatment; assay type: cell-based; settings: 10 μM sotalol, 10 min treatment, day 14 of culture
Excerpt: Isoproterenol, carbachol and sotalol were purchased from Sigma-Aldrich.

Sequence of hERG ion channels (Q12809 whole entry): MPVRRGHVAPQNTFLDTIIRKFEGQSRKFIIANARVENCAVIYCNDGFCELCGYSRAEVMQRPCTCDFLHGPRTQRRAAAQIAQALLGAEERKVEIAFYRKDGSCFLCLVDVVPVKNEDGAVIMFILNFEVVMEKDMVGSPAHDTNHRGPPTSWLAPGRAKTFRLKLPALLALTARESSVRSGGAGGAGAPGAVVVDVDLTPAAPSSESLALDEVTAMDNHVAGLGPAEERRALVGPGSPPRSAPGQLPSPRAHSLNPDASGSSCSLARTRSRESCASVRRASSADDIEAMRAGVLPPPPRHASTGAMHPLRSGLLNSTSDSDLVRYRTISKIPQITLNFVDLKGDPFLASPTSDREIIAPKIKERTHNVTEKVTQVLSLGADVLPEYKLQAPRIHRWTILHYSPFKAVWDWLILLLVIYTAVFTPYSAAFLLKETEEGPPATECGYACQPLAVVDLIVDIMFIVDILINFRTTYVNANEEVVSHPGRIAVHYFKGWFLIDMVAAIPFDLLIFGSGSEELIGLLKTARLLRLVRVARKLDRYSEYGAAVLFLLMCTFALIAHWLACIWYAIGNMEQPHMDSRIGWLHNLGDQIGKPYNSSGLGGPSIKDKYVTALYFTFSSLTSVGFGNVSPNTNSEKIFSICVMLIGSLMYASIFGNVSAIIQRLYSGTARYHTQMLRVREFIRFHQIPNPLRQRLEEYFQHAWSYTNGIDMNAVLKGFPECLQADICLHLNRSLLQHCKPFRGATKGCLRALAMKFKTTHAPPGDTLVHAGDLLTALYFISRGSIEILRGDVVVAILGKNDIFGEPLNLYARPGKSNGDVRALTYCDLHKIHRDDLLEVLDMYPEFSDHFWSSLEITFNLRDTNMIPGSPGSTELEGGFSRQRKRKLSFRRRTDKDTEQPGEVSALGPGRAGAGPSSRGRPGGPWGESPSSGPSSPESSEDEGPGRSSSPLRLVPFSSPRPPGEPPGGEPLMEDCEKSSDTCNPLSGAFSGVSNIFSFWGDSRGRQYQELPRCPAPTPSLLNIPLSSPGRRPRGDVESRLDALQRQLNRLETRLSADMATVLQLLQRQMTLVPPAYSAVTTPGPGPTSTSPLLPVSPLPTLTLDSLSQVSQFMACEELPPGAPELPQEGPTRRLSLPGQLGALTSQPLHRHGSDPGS

Structure (SMILES): COc1cc2nc(N(C)CCCNC(=O)C3CCCO3)nc(N)c2cc1OC (stereo not drawn) [alfuzosin]
outcome of hERG safety assay versus actual cardiac safety (hERG ion channels): false negatives

Structure (SMILES): C[N+](C)(C)CCOC(N)=O [carbachol]
beating frequency (CardioSlice constructs [1]; 10 μM carbachol, 10 min incubation, relative to baseline): statistically significant decrease

Structure (SMILES): CC(C)NCC(O)c1ccc(O)c(O)c1 (stereo not drawn) [isoproterenol]
RR intervals (CardioSlice constructs [1]; 1 μM isoproterenol, 10 min incubation): decreased
beating rate (CardioSlice constructs [1]; 1 μM isoproterenol, 10 min incubation, relative to baseline): statistically significant increment

contractile patterns (mechanical level) (CardioSlice constructs [2]; sotalol-treated CardioSlice constructs): dyssynchronous contractile patterns
Structure (SMILES): CC(C)NCC(O)c1ccc(NS(C)(=O)=O)cc1 (stereo not drawn) [sotalol]
chronotropic response (beat rate changes) (CardioSlice constructs [2]; sotalol, incubation times from 0 min to 40 min): a negative chronotropic effect can be observed, followed by a progressive emergence of cardiac arrhythmias
increase of the QT interval (prolongation) (CardioSlice constructs [1]; human, 10 μM): greater than 20%
beating frequency [3]: random increases and decreases
morphology of ECG-like signals [3]: no alteration
